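Each compound was tested at five concentrations against cells in 96-well plates for 48 hours. TGI denotes the concentration required for complete inhibition of growth.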
Legend:
Experiment in all cases: inhibition of tumour cell growth, NCI panel, 48 h
M19-MEL melanoma = tested on: M19-MEL melanoma
LXFL 529 NSCLC = tested on: LXFL 529 NSCLC
IGROV1 ovarian = tested on: IGROV1 ovarian
DLD-1 colon = tested on: DLD-1 colon
KM20L2 colon = tested on: KM20L2 colon
HOP-18 NSCLC = tested on: HOP-18 NSCLC
DMS 114 small cell lung = tested on: DMS 114 small cell lung
SNB-78 CNS = tested on: SNB-78 CNS
DMS 273 small cell lung = tested on: DMS 273 small cell lung
XF 498 CNS = tested on: XF 498 CNS
BT-549 breast = tested on: BT-549 breast
RXF-631 renal = tested on: RXF-631 renal

`COc1cc2c(oc(=O)c3cc4cc([Si](C)(C)C)oc4c(OC)c32)c2cccc(O)c12` was tested, and the TGI (M19-MEL melanoma) was > 100 µM, the TGI (LXFL 529 NSCLC) was > 100 µM and the TGI (IGROV1 ovarian) was > 100 µM. For the same compound, the TGI (DLD-1 colon) was > 100 µM, the TGI (KM20L2 colon) was > 100 µM and the TGI (HOP-18 NSCLC) was > 100 µM. For the same compound, the TGI (DMS 114 small cell lung) was > 100 µM, the TGI (SNB-78 CNS) was > 100 µM and the TGI (DMS 273 small cell lung) was > 100 µM. For the same compound, the TGI (XF 498 CNS) was > 100 µM.
`O=[N+]([O-])c1cc(-[n+]2cc([O-])on2)ccc1Cl` gave a TGI (IGROV1 ovarian) of 64.5 µM and a TGI (BT-549 breast) of 49 µM.
For `Cc1c2ccncc2c(C)c2c1[nH]c1ccc(Oc3ccccc3)cc12`, the TGI (LXFL 529 NSCLC) was 4.28 µM, the TGI (IGROV1 ovarian) was 42.4 µM and the TGI (KM20L2 colon) was 3.36 µM. The TGI (HOP-18 NSCLC) was 30.4 µM, the TGI (DMS 114 small cell lung) was 3.35 µM and the TGI (SNB-78 CNS) was 6.68 µM. It also gave a TGI (DMS 273 small cell lung) of 3.07 µM and a TGI (XF 498 CNS) of 3.61 µM.
In the case of `O=C(O)CCCNc1ncc2c(n1)-c1ccccc1OC2`, the TGI (IGROV1 ovarian) was > 100 µM.
With `Cc1cc(S(=O)(=O)Nc2nnc3ccccn23)c(S)cc1Cl` the TGI (IGROV1 ovarian) was > 100 µM and the TGI (BT-549 breast) was > 100 µM.
Compound `CC(=O)Oc1c2ccsc2c(OC(C)=O)c2ccsc12` has a TGI (IGROV1 ovarian) of 3.5 µM and a TGI (BT-549 breast) of 1.86 µM.
`Cc1ccc(/C=C/C(=O)c2sc(-n3nc(-c4ccccc4)cc3-c3ccccc3)nc2C)cc1` was tested, and the TGI (M19-MEL melanoma) was > 100 µM, the TGI (IGROV1 ovarian) was > 100 µM and the TGI (DLD-1 colon) was > 100 µM. The TGI (KM20L2 colon) was > 100 µM, the TGI (HOP-18 NSCLC) was > 100 µM and the TGI (DMS 114 small cell lung) was > 100 µM. The TGI (SNB-78 CNS) was > 100 µM and the TGI (DMS 273 small cell lung) was > 100 µM.
In the case of `O=c1[nH][nH]c(=O)n1/N=C/c1ccccc1`, the TGI (IGROV1 ovarian) was > 100 µM and the TGI (BT-549 breast) was > 100 µM.
For `O=C1CCC2c3ccccc3NCN12` (centres undefined), the TGI (IGROV1 ovarian) was > 100 µM.
With `COC(=O)CN1C(=O)C2(C(=O)OC)OC1(c1ccc([N+](=O)[O-])cc1)C1C(=O)N(c3ccccc3)C(=O)C12` (centres undefined) the TGI (IGROV1 ovarian) was > 100 µM and the TGI (BT-549 breast) was > 100 µM.
For `COCN(C)c1nc(N(C)C)nc(N(C)C)n1`, the TGI (M19-MEL melanoma) was > 100 µM, the TGI (LXFL 529 NSCLC) was > 100 µM and the TGI (IGROV1 ovarian) was > 100 µM. The TGI (DLD-1 colon) was > 100 µM, the TGI (KM20L2 colon) was > 100 µM and the TGI (HOP-18 NSCLC) was > 100 µM. The TGI (DMS 114 small cell lung) was > 100 µM, the TGI (SNB-78 CNS) was > 100 µM and the TGI (DMS 273 small cell lung) was > 100 µM.
In the case of `COc1cc2cc3c4c(cc(OC)c(OC)c4c2cc1OC)CCN3C`, the TGI (IGROV1 ovarian) was > 43.7 µM and the TGI (BT-549 breast) was > 23.6 µM.
`CN(C)c1ccc(/C=N/c2nc3cc4sc(/N=C/c5ccc(N(C)C)cc5)nc4cc3s2)cc1` was tested, and the TGI (IGROV1 ovarian) was > 100 µM and the TGI (BT-549 breast) was > 100 µM.
In the case of `CC(C)OC(=O)[C@H]1ON2O[C@H](O[C@@H]3CCCC[C@H]3c3ccccc3)C([Si](C)(C)c3ccccc3)[C@H]3OC(=O)[C@@H]1C32` (some centres undefined), the TGI (IGROV1 ovarian) was > 100 µM and the TGI (BT-549 breast) was > 100 µM.
In the case of `CS(=O)(=O)OCCCSCCSCCCOS(C)(=O)=O`, the TGI (IGROV1 ovarian) was > 100 µM and the TGI (BT-549 breast) was > 100 µM.
In the case of `O=C(CC(C(=O)c1ccsc1)c1ccsc1)c1ccsc1` (centres undefined), the TGI (IGROV1 ovarian) was > 100 µM.
In the case of `CCN(CC)C(=S)SCC(=O)Nc1nc2c(s1)CCCC2`, the TGI (M19-MEL melanoma) was > 100 µM, the TGI (LXFL 529 NSCLC) was > 100 µM and the TGI (IGROV1 ovarian) was > 100 µM. For the same compound, the TGI (DLD-1 colon) was > 100 µM, the TGI (KM20L2 colon) was > 100 µM and the TGI (DMS 114 small cell lung) was > 100 µM. The TGI (SNB-78 CNS) was > 100 µM, the TGI (DMS 273 small cell lung) was > 100 µM and the TGI (XF 498 CNS) was > 100 µM.
In the case of `Cc1nc2cc3ccccc3cc2[nH]c1=O`, the TGI (IGROV1 ovarian) was > 100 µM and the TGI (BT-549 breast) was > 100 µM.
`CN(C)CCCNC(=O)c1cc(NS(=O)(=O)c2ccc3c(c2)C(=O)c2ccccc2C3=O)cn1C` was tested, and the TGI (IGROV1 ovarian) was 75.1 µM and the TGI (BT-549 breast) was 53.9 µM.
`O=C1OCC(c2ccc(Cl)cc2)=C1Cl` gave a TGI (IGROV1 ovarian) of 25.2 µM and a TGI (BT-549 breast) of 53.9 µM.
For `c1ccc2c(c1)Cc1c(Cc3csc4ccccc34)ccc3cccc-2c13`, the TGI (M19-MEL melanoma) was > 100 µM, the TGI (LXFL 529 NSCLC) was > 100 µM and the TGI (RXF-631 renal) was > 100 µM. For the same compound, the TGI (IGROV1 ovarian) was > 100 µM, the TGI (DLD-1 colon) was > 100 µM and the TGI (KM20L2 colon) was > 100 µM. The TGI (DMS 114 small cell lung) was > 100 µM, the TGI (SNB-78 CNS) was > 100 µM and the TGI (DMS 273 small cell lung) was > 100 µM. The TGI (XF 498 CNS) was > 100 µM.
For `COC(=O)c1c(C)c2c(c(C)c1C(=O)OC)-c1c(C)ccc3ccc(C)c-2c13`, the TGI (IGROV1 ovarian) was > 100 µM and the TGI (BT-549 breast) was > 100 µM.
`CCOC(=O)OC1C(Br)C2CCC1(C)C2(C)C` (centres undefined) was tested, and the TGI (IGROV1 ovarian) was 32.8 µM and the TGI (BT-549 breast) was 31.3 µM.
For `CCOC(=O)C1C(c2ccc(OC)cc2)c2c([nH][nH]c2=O)CC1(C)O` (centres undefined), the TGI (IGROV1 ovarian) was > 100 µM and the TGI (BT-549 breast) was > 100 µM.
In the case of `Cc1ccc(S(=O)(=O)N/N=C2\CCCCCCCCCCC2CN(C)C)cc1` (centres undefined), the TGI (IGROV1 ovarian) was 30.7 µM and the TGI (BT-549 breast) was 32.1 µM.
`COc1cc([C@@H]2c3cc4c(cc3[C@@H](OC(=O)c3cccc(N)c3)C3COC(=O)[C@@H]32)OCO4)cc(OC)c1O` (some centres undefined) was tested, and the TGI (M19-MEL melanoma) was > 100 µM, the TGI (LXFL 529 NSCLC) was 51 µM and the TGI (IGROV1 ovarian) was > 64.8 µM. For the same compound, the TGI (DLD-1 colon) was > 100 µM, the TGI (KM20L2 colon) was 26.8 µM and the TGI (SNB-78 CNS) was > 100 µM. The TGI (DMS 273 small cell lung) was > 100 µM and the TGI (XF 498 CNS) was 35 µM.
With `Cc1cn(Cc2cccc(C3=NCCCN3)c2)c(=O)n(Cc2cccc(C3=NCCCN3)c2)c1=O` the TGI (IGROV1 ovarian) was > 100 µM and the TGI (BT-549 breast) was > 100 µM.
In the case of `CCOC(=O)NN(C(=O)OCC)C(=C(C1=CCCCC1)N1CCOCC1)N(NC(=O)OCC)C(=O)OCC`, the TGI (IGROV1 ovarian) was > 100 µM and the TGI (BT-549 breast) was > 100 µM.
`CN1C(=O)C(C(=O)Nc2ccccn2)C2C[C@@]1(C)Oc1ccccc12` (some centres undefined) was tested, and the TGI (IGROV1 ovarian) was > 100 µM and the TGI (BT-549 breast) was > 100 µM.
In the case of `ClCC[N-]CC[N-]CCCl.ClCC[N-]CC[N-]CCCl.[O-][Cl+3]([O-])([O-])O.[Zn+2]`, the TGI (M19-MEL melanoma) was > 57.1 µM, the TGI (LXFL 529 NSCLC) was 35.9 µM and the TGI (IGROV1 ovarian) was > 62.3 µM. For the same compound, the TGI (DLD-1 colon) was 35 µM, the TGI (KM20L2 colon) was > 100 µM and the TGI (HOP-18 NSCLC) was 56.5 µM. The TGI (DMS 114 small cell lung) was > 55.8 µM, the TGI (SNB-78 CNS) was > 76.6 µM and the TGI (DMS 273 small cell lung) was > 60.2 µM.
`CO[C@@]12C[C@@H](C)[C@]34O[C@H]3C[C@]3(C)O[C@]43CC1=C(C)C(=O)O2` was tested, and the TGI (IGROV1 ovarian) was > 100 µM and the TGI (BT-549 breast) was > 100 µM.
In the case of `COc1ccc(N=Nc2ccc3oc(=O)c(C(=O)Nc4ccccc4C)cc3c2)cc1`, the TGI (IGROV1 ovarian) was > 10 µM.
With `CC1(C)Cc2c(oc3ncnc(N)c23)CS1` the TGI (M19-MEL melanoma) was > 100 µM, the TGI (LXFL 529 NSCLC) was > 100 µM and the TGI (RXF-631 renal) was > 100 µM. The TGI (IGROV1 ovarian) was > 100 µM, the TGI (DLD-1 colon) was > 100 µM and the TGI (KM20L2 colon) was > 100 µM. For the same compound, the TGI (DMS 114 small cell lung) was > 100 µM, the TGI (SNB-78 CNS) was > 100 µM and the TGI (DMS 273 small cell lung) was > 100 µM. For the same compound, the TGI (XF 498 CNS) was > 100 µM.
`COC(=O)c1cc(O)c(O)c(O)c1-c1c(O)c(O)c(O)c(SC[C@H](NC(=O)OCc2ccccc2)C(=O)OCc2ccccc2)c1C(=O)OC` was tested, and the TGI (IGROV1 ovarian) was 84.2 µM and the TGI (BT-549 breast) was > 100 µM.
With `CCOC(=O)CCC(NC(=O)c1ccc(Oc2nc3c(N)cc(C(F)(F)F)cc3nc2-c2ccccc2)cc1)C(=O)OCC` (centres undefined) the TGI (IGROV1 ovarian) was > 100 µM and the TGI (BT-549 breast) was > 95 µM.

Reference: PubChem BioAssay (NCI)
